Values of other authors in the PKSmart pharmacokinetics tables (Seal et al. 2025).
*1 amine or outer side, *2 acyl side, *3 side chain or, on linkers, in order; H or OH if unused. Where a SMILES comes first, the peptide text is derived from it. Bridges are numbered along the chain shown (N, C = ends). [ ]: non-standard residue; d: D form. ξ: configuration not given here. ξPro(4R-OH) = O=C(O)C1C[C@@H](O)CN1; ξ2Thi = NC(Cc1cccs1)C(=O)O; ξR = N=C(N)NCCCC(N)C(=O)O; Iva = CC[C@](C)(N)C(=O)O; ξF = NC(Cc1ccccc1)C(=O)O; X3 = O=C(CCC[*:2])[*:1]; ξN = NC(=O)CC(N)C(=O)O; ξC = NC(CS)C(=O)O

Test: Lombardo, Berellini, Obach 2018, Drug Metab Dispos 46:1466, doi 10.1124/dmd.118.082966
Conditions: human; for MRT / Vd / clearance / half-life: in vivo, iv; for fraction unbound: plasma

Row | Structure (SMILES) | MRT [h] | Vd [L/kg] | clearance [mL/min/kg] | half-life [h] | fraction unbound
1 | CCC1C(=O)N(C)c2cnc(Nc3ccc(C(=O)N[C@H]4CC[C@H](N5CCN(CC6CC6)CC5)CC4)cc3OC)nc2N1C(C)C (some centres not stated) | 116 | 80.5 | 11.6 | 113 | –
2 | C[C@H]1CN(c2c(F)cc3c(=O)c(C(=O)O)cn(C4CC4)c3c2OC(F)F)CCN1 | 7.1 | 1.1 | 2.7 | 5.9 | –
3 | C[C@H](CCc1ccccc1)NC[C@H](O)c1ccc(O)c(C(N)=O)c1 | 2.8 | – | 29 | 3.3 | –
4 | Nc1nc2[nH]cnc2c(=S)[nH]1 | 3.13 | 2.89 | 15.4 | 24.4 | –
5 | CN(C)C(=O)Oc1cccc([N+](C)(C)C)c1 | 1.3 | 0.74 | 9.2 | 1.3 | –
6 | C#Cc1cccc(Nc2ncnc3cc(OCCOC)c(OCCOC)cc23)c1 | 7.55 | 0.77 | 1.69 | 6.5 | 0.07
7 | CCC(=O)O[C@]1(C(=O)SCF)[C@H](C)C[C@H]2[C@@H]3C[C@H](F)C4=CC(=O)C=C[C@]4(C)[C@@]3(F)[C@@H](O)C[C@@]21C | 3.9 | 3.6 | 17 | 6 | 0.1
8 | CN(C)CCCN1c2ccccc2Sc2ccc(Cl)cc21 | 10 | 10 | 16 | 11 | –
9 | C[C@]12CC=C3C4=C(CCC3[C@@H]1CC[C@@]2(O)CC#N)CC(=O)CC4 (some centres not stated) | 8.52 | 0.6 | 1.29 | 11 | 0.1
10 | CCN(CC)CCCC(C)Nc1c2ccc(Cl)cc2nc2ccc(OC)cc12 (configuration not stated) | 150 | 45 | 5.1 | 120 | –
11 | CCC(C(N)=O)N1CCCC1=O (configuration not stated) | 11.2 | 0.6 | 0.9 | 8.23 | 0.9
12 | Cc1cn[nH]c1 | 7.94 | 0.35 | 0.73 | 4.42 | –
13 | CCC(C)n1ncn(-c2ccc(N3CCN(c4ccc(OCC5COC(Cn6cncn6)(c6ccc(Cl)cc6Cl)O5)cc4)CC3)cc2)c1=O (configuration not stated) | – | 7.4 | 5.1 | 25 | –
14 | CC(C(O)c1ccc(O)cc1)N1CCC(Cc2ccccc2)CC1 (configuration not stated) | 4.9 | 19 | 64.6 | 4.32 | –
15 | CC(=O)O[C@H]1C[C@@]2(C)[C@@H](C[C@@H](O)[C@H]3[C@]4(C)CC[C@@H](O)[C@@H](C)[C@@H]4CC[C@]32C)/C1=C(/CCC=C(C)C)C(=O)O | 10.6 | 0.23 | 0.35 | 9.8 | 0.02
16 | C1COC(NC(C2CC2)C2CC2)=N1 | 10.6 | 4.5 | 7.1 | 8.3 | 0.9
17 | Cc1onc(-c2ccccc2)c1C(=O)NC1C(=O)N2C(C(=O)O)C(C)(C)S[C@H]12 (some centres not stated) | 0.5 | 0.19 | 6.3 | 0.7 | 0.07
18 | CC(C)(C)C(NC(=O)C(CC1CCCC1)CN(O)C=O)C(=O)N1CCN(Cc2ccc3c(c2)OCO3)CC1 (configuration not stated) | 5.9 | 1.1 | 3.1 | 9.4 | 0.2
19 | CC(C)C1C(=O)NC(CCCNC(=N)N)C(=O)NCC(=O)NC(CC(=O)O)C(=O)NC(Cc2ccccc2)C(=O)N1C (configuration not stated) | 3.67 | 0.26 | 1.18 | 3.6 | –
20 | CO[C@]1(NC(=O)CSC(F)F)C(=O)N2C(C(=O)O)=C(CSc3nnnn3CCO)CO[C@@H]21 | 0.77 | 0.19 | – | 0.6 | 0.64
21 | CC(C)(C(=O)O)c1ccc(C(=O)CCCN2CCC(OC(c3ccccc3)c3ccccc3)CC2)cc1 | 16.7 | 0.41 | 0.4 | 9.8 | 0.05
22 | CN(C)CC(Oc1ccccc1)Oc1ccccc1 | 3.4 | 2.8 | 13.7 | 4.4 | –
23 | NC(CCC(=O)NC(Cc1ccc(O)c(O)c1)C(=O)O)C(=O)O (configuration not stated) | 0.74 | 0.21 | 4.6 | 0.5 | –
24 | CC(C)CC(NC(=O)C(CCc1ccccc1)NC(=O)CN1CCOCC1)C(=O)NC(Cc1ccccc1)C(=O)NC(CC(C)C)C(=O)[C@@]1(C)CO1 (some centres not stated) | 0.05 | 0.13 | 39.5 | 1.1 | 0.02
25 | CCN(CC)CCNc1ccc(CNC=O)c2sc3ccc(OC)cc3c(=O)c12 | 5.4 | 1.01 | 3.1 | 6.19 | –
26 | CN1C[C@@H]2c3ccccc3Oc3ccc(Cl)cc3[C@H]2C1 | 30.9 | 23 | 12.4 | – | –

Row | Structure (SMILES) | MRT [h] | Vd [L/kg] | clearance [mL/min/kg] | half-life [h] | fraction unbound
27 | CC1(C)S[C@@H]2C(NC(=O)C(NC(=O)NC(=N)N)c3ccccc3)C(=O)N2C1C(=O)O (some centres not stated) | 2.5 | 0.24 | 1.6 | 2.09 | 0.8
28 | CC(=O)C1CC[C@H]2[C@@H]3CC[C@@H]4C[C@H](O)CC[C@]4(C)[C@H]3CC[C@]12C (some centres not stated) | 1.5 | 2 | 22 | 4.7 | 0.01
29 | CCCOC(C(=O)OC1CCN(C)CC1)(c1ccccc1)c1ccccc1 | 15.4 | 2.73 | 2.94 | 15.2 | 0.1
30 | Clc1ccc(COC(Cn2ccnc2)c2ccc(Cl)cc2Cl)c(Cl)c1 (configuration not stated) | 12.6 | 7.14 | 9.48 | 19.8 | 0.08
31 | CC1CNc2c(cccc2S(=O)(=O)NC(CCCNC(=N)N)C(=O)N2CC[C@@H](C)CC2C(=O)O)C1 (some centres not stated) | 0.57 | 0.17 | 5 | 0.4 | 0.46
32 | Nc1cc(N2CCCCC2)nc(N)[n+]1[O-] | 1.3 | 0.9 | 11.5 | 1.5 | –
33 | CC[C@]1(C)NC(=O)C(Cc2cccs2)NC(=O)C(Cc2ccccc2)NC(=O)CCCSCC(C(=O)N2C[C@H](O)CC2C(=O)NC(CCCNC(=N)N)C(=O)NCC(N)=O)NC(=O)C(CC(N)=O)NC1=O (stereo partly drawn) ([ξF][ξ2Thi][Iva][ξN][ξC][ξPro(4R-OH)][ξR]G-NH2; linker N-5 via X3) | 5.63 | 0.31 | 0.87 | 4.28 | –
34 | Cc1c(C)c2ccc(OCCCN3CCN(Cc4ccc(Cl)cc4)CC3)cc2oc1=O | 16.5 | 1.3 | 1.3 | 19.2 | 0.05
35 | C=C[C@@H]1CNCC[C@@H]1CCCc1ccnc2ccc(OC)cc12 | 15.6 | 24.4 | 26 | 12.1 | –
36 | CC1(C)SC2C(NC(=O)C(NC(=O)c3cnc4cccnc4c3O)c3ccccc3)C(=O)N2C1C(=O)O (configuration not stated) | 1.4 | 0.16 | 1.9 | 1.2 | 0.1
37 | Cc1nnc(SCC2=C(C(=O)O)N3C(=O)C(NC(=O)C(O)c4ccccc4)[C@H]3SC2)s1 (some centres not stated) | 0.83 | 0.13 | 2.6 | 1 | –
38 | O=C(O)C(Cl)Cl | 0.6 | 0.19 | 5.3 | 0.65 | –
39 | CC[C@H](CC[C@@H](C)[C@H]1CC[C@H]2[C@@H]3CC=C4C[C@@H](O)CC[C@]4(C)[C@H]3CC[C@]12C)C(C)C | 250 | 0.3 | 0.02 | 372 | –
40 | O=c1ccc2ccccc2o1 | 0.78 | 1.1 | 23.6 | 0.8 | 0.17
41 | CS(=O)(=O)c1ccc2c(c1)N(CCCN1CCC(C(N)=O)CC1)c1ccccc1S2 | – | – | 12.1 | 4 | –
42 | NC(Cc1ccccn1)c1ccccc1 (configuration not stated) | 15.1 | 1.62 | 1.8 | 10.4 | –
43 | O=C(CCCN1CCC(n2c(=O)[nH]c3ccccc32)CC1)c1ccc(F)cc1 | 7.5 | 3.8 | 8.3 | 5.8 | –
44 | C[C@H]1COc2c(N3CCN(C)CC3)c(F)cc3c(=O)c(C(=O)O)cn1c23 | 11 | 1.2 | 1.9 | 8.8 | –
45 | C[C@@H](Cc1ccccc1)NC(=O)C(N)CCCCN (some centres not stated) | 0.6 | 0.6 | 17 | 1.2 | –
46 | O=C(/C=C/c1ccc(O)c(O)c1)O[C@@H]1C[C@](OC(=O)/C=C/c2ccc(O)c(O)c2)(C(=O)O)C[C@@H](O)[C@H]1O | 1.5 | 0.79 | 8.7 | 1.37 | –
47 | NS(=O)(=O)c1cc(C(=O)O)cc(N2CCCC2)c1Oc1ccccc1 | 0.91 | 0.17 | 3.1 | 1.3 | 0.058
48 | C#CCC(Cc1cnc2nc(N)nc(N)c2n1)c1ccc(C(=O)NC(CCC(=O)O)C(=O)O)cc1 (configuration not stated) | 3.7 | 1.01 | 4.35 | 15 | 0.33
49 | CC(C)(C)NC[C@@H](O)COc1cccc2c1CCC(=O)N2 | – | – | 10.1 | 4.7 | –
50 | COc1ccc2c3c1O[C@H]1[C@@H](O)CC[C@H]4[C@@H](C2)N(C)CC[C@@]341 | 4.08 | 1.07 | 4.21 | 3.42 | –
51 | CCCCC(C)(C)[C@@H](O)/C=C\[C@@H]1[C@H](C/C=C/CCCC(=O)O)[C@@H](Cl)C[C@@H]1O | 0.2 | 0.16 | 13.2 | 0.8 | –
52 | CCC(C)(C)NCC(O)COc1ccccc1C(=O)CCc1ccccc1 (configuration not stated) | 1.9 | 1.2 | 11 | 1.5 | 0.017
